Test results: ChEMBL document CHEMBL1201862, “PubChem BioAssay data set” (2004)
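Cells were grown in 96-well plates and exposed to each compound for 48 hours at five concentrations; endpoints were interpolated linearly between bracketing concentrations, or set to the highest concentration if not reached. The concentration for 50% growth inhibition is given as GI50.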 Calls of active or inactive are those of the source. Rule as the data show it: active = GI50 up to about 1.1 µM and inactive = higher.

Tests used:
Assay in all cases: DTP human tumour cell line panel, 48 h
OVCAR-4 = tested on: OVCAR-4
U-251 = tested on: U-251
SW-620 = tested on: SW-620
HCC 2998 = tested on: HCC 2998
SF-268 = tested on: SF-268
OVCAR-5 = tested on: OVCAR-5
A549 = tested on: A549
NCI-H226 = tested on: NCI-H226
SN12C = tested on: SN12C
SK-MEL-2 = tested on: SK-MEL-2
SF-295 = tested on: SF-295
OVCAR-8 = tested on: OVCAR-8
CCRF-CEM = tested on: CCRF-CEM
HOP-92 = tested on: HOP-92
RXF 393 = tested on: RXF 393
SK-MEL-28 = tested on: SK-MEL-28
K562 = tested on: K562
LOX IMVI = tested on: LOX IMVI
OVCAR-3 = tested on: OVCAR-3
HT-29 = tested on: HT-29

SMILES	GI50 (OVCAR-4)	GI50 (U-251)	GI50 (SW-620)	GI50 (HCC 2998)	GI50 (SF-268)	GI50 (OVCAR-5)	GI50 (A549)	GI50 (NCI-H226)	GI50 (SN12C)	GI50 (SK-MEL-2)	GI50 (SF-295)	GI50 (OVCAR-8)	GI50 (CCRF-CEM)	GI50 (HOP-92)	GI50 (RXF 393)	GI50 (SK-MEL-28)	GI50 (K562)	GI50 (LOX IMVI)	GI50 (OVCAR-3)	GI50 (HT-29)
S=C(N/N=C(/c1ccccc1)c1ccccn1)Nc1cccc(Cl)c1	0.0524 µM (active)	0.169 µM (active)	< 0.0385 µM (active)	0.748 µM (active)	0.462 µM (active)	0.984 µM (active)	1.55 µM (inactive)	0.508 µM (active)	0.394 µM (active)	0.839 µM (active)	0.422 µM (active)	0.0454 µM (active)	< 0.0258 µM (active)	1.93 µM (inactive)	1.08 µM (active)	1.01 µM (active)				
CCOC(=O)[C@H]1Nc2c(cccc2[N+](=O)[O-])[C@H]2OCC[C@@H]12	> 100 µM (inactive)	> 100 µM (inactive)	> 100 µM (inactive)	> 100 µM (inactive)	> 100 µM (inactive)	> 100 µM (inactive)	> 100 µM (inactive)	> 100 µM (inactive)	> 100 µM (inactive)	> 100 µM (inactive)	> 100 µM (inactive)	> 100 µM (inactive)			> 100 µM (inactive)	> 100 µM (inactive)	> 100 µM (inactive)	> 100 µM (inactive)	> 100 µM (inactive)	> 100 µM (inactive)
Nc1c(Br)cc2c(c1Br)Cc1cc(Br)ccc1-2	> 100 µM (inactive)	> 100 µM (inactive)	> 100 µM (inactive)	> 100 µM (inactive)	> 100 µM (inactive)		> 100 µM (inactive)	> 100 µM (inactive)	> 100 µM (inactive)		> 100 µM (inactive)	> 100 µM (inactive)	> 100 µM (inactive)	> 100 µM (inactive)	> 100 µM (inactive)	> 100 µM (inactive)	> 100 µM (inactive)	> 100 µM (inactive)	> 100 µM (inactive)	> 100 µM (inactive)
CCSc1nc(N)c2c(-c3ccccc3)c3c(nc2n1)CCC3	> 100 µM (inactive)	> 100 µM (inactive)	> 100 µM (inactive)		> 100 µM (inactive)	9.91 µM (inactive)	4.56 µM (inactive)		> 100 µM (inactive)		> 100 µM (inactive)	> 100 µM (inactive)	> 100 µM (inactive)		> 100 µM (inactive)	> 100 µM (inactive)	> 100 µM (inactive)	> 100 µM (inactive)	> 100 µM (inactive)	
COc1ccc(-c2c(C#N)c(N)nc3c2CCS(=O)(=O)c2ccccc2-3)cc1	> 100 µM (inactive)	> 100 µM (inactive)	> 100 µM (inactive)	> 100 µM (inactive)	> 100 µM (inactive)		> 100 µM (inactive)	> 100 µM (inactive)	> 100 µM (inactive)	> 100 µM (inactive)		> 100 µM (inactive)	> 100 µM (inactive)	> 100 µM (inactive)		> 100 µM (inactive)	> 100 µM (inactive)	> 100 µM (inactive)		> 100 µM (inactive)
Cc1cnc(SCCN2CCN(C)CC2)nc1-c1cc2ccccc2s1	16.7 µM (inactive)	8.36 µM (inactive)	11.9 µM (inactive)	13.3 µM (inactive)		> 10 µM (inactive)	4.62 µM (inactive)	11.9 µM (inactive)	9.02 µM (inactive)	16.1 µM (inactive)	9.14 µM (inactive)	12.6 µM (inactive)	3.18 µM (inactive)	5.53 µM (inactive)	10.1 µM (inactive)	16.2 µM (inactive)		5.09 µM (inactive)	5.98 µM (inactive)	6.03 µM (inactive)
COc1ccccc1NC(=O)/C(Cc1nc2ccc([N+](=O)[O-])cc2nc1O)=N\NC(=O)C[N+](C)(C)C	> 100 µM (inactive)	> 100 µM (inactive)	48 µM (inactive)	29.6 µM (inactive)	> 100 µM (inactive)	> 100 µM (inactive)	> 100 µM (inactive)	> 100 µM (inactive)	> 100 µM (inactive)	> 100 µM (inactive)	55.7 µM (inactive)	> 100 µM (inactive)	13.3 µM (inactive)	> 100 µM (inactive)	> 100 µM (inactive)	> 100 µM (inactive)		> 100 µM (inactive)	41.7 µM (inactive)	30.5 µM (inactive)
CCN(CC)c1ccc2cc(C(=O)Nc3ccc4[nH]c(C(=O)N5C[C@@H](CCl)c6c5cc(OC(=O)Nc5ccccc5)c5[nH]cc(C)c65)cc4c3)oc2c1 [CARZELESIN]	0.000426 µM (active)		0.000321 µM (active)	434 µM (inactive)	0.00021 µM (active)	0.000601 µM (active)	0.000162 µM (active)		552 µM (inactive)	0.000601 µM (active)		234 µM (inactive)	0.000168 µM (active)	> 1000 µM (inactive)	0.000201 µM (active)	0.000479 µM (active)	0.000556 µM (active)	0.000128 µM (active)	245 µM (inactive)	> 1000 µM (inactive)
